# Data published in patent publication US9056835B2, “LPA2 receptor-specific benzoic acid derivatives” (University of Tennessee Research Foundation, priority 2012, dated 2015).
# System: vector- and LPA2-transduced MEF cells
# Experiment: Cell proliferation assay
# Format: cell-based, mouse
# Conditions: LPA 1 μM, OTP 1 μM, GRI977143 10 μM; for cell growth: LPA2-transduced MEF; for cell proliferation: vector-transduced MEF
# Description: Mouse embryonic fibroblast (MEF) cells were isolated from E13.5 LPA1&2 double knockout (DKO) embryos. MEFs were transduced with empty vector or LPA2-containing lentiviruses and selected with 1.5 μg/ml puromycin. Cells were maintained in Dulbecco's modified Eagle medium (DMEM) supplemented with 10% (V/V) fetal bovine serum (FBS), 2 mM L-glutamine, 100 U/mL penicillin, and 100 μg/mL streptomycin. Serum-free medium contained 0.1% (W/V) BSA in DMEM. The rat intestinal epithelial cell line 6 (IEC-6) was obtained from the American Type Culture Collection (Rockville, Md.) at passage 13; passages 16-21 were used in all experiments. IEC-6 cells were maintained in a humidified 37° C. incubator in an atmosphere of 90% air and 10% CO2. Growth medium consisted of DMEM supplemented with 5% heat inactivated FBS, 10 μg/mL insulin, and 50 μg/mL gentamycin. The composition of the serum-starvation medium was the same as that of the full growth medium except that it contained no FBS. The McArdle rat hepatoma cell line (RH7777) stably expressing LPA2 receptors was a gift from Dr. Fumikazu Okajima (Gunma University, Maebashi, Japan). RH7777 cells stably expressing LPA1 or LPA3 receptors were generated in-house and had been characterized earlier. Wild type and LPA receptor (LPAR) stably transfected RH7777 cells were grown in DMEM supplemented with 10% FBS and 2 mM L-glutamine in the presence of 250 μg/ml G418. Chinese hamster ovary (CHO) cells stably expressing either vector or LPA4 receptor were a kind gift from Dr. Takao Shimizu (Tokyo University; Tokyo, Japan). Cells were cultured in Ham's F12 medium containing 10% FBS, 2 mM L-glutamine, and 350 μg/ml G418. Rat neuroblastoma cells (B103) were transduced with the lentivirus harboring wild type of FLAG-LPA5 and selected with puromycin to establish the stable cell lines. The stable cells were maintained in DMEM supplemented with 10% FBS and 0.4 μg/ml puromycin. GPR87- and P2Y10-expressing CHO cells and vector-transfected control cells were a gift from Dr. Norihisha Fujita (Ritsumeikan University; Shiga, Japan). The highly invasive MM1 rat hepatoma cells (gift from Dr. Michiko Mukai, Osaka University, Japan) were grown in suspension in DMEM supplemented with 10% (V/V) FBS, 2 mM L-glutamine, 100 U/mL penicillin, and 100 μg/mL streptomycin. Human umbilical vein endothelial cells (HUVEC) were purchased from VEC Technologies Inc. (Rensselaer, N.Y., USA) and cultured in MCDB-131 complete medium supplemented with 10% (V/V) FBS, 90 μg/mL heparin, 10 ng/mL EGF, 1 μg/mL hydrocortisone, 0.2 mg/mL EndoGrowth (VEC Technologies Inc.) supplement, 100 U/mL penicillin G, 100 μg/mL streptomycin, and 25 μg/mL amphotericin B.
# For determination of the effect of the LPA receptor ligands on cell growth, vector- and LPA2-transduced MEF cells (2×10^4) were plated in each well of a 24-well plate in full growth medium. Cells were counted the next day and the medium was replaced with medium containing 1.5% (V/V) FBS supplemented with or without 1 μM LPA, 1 μM OTP, or 10 μM GRI977143. Media containing LPA, OTP, and GRI977143 were refreshed every 24 h. The growth rate was measured by counting the number of cells in triplicate using the Z1 Coulter Particle Counter (Beckman Coulter; Hileah, Fla.) as a function of time.
compound,measurement,value
O=C(O)c1ccccc1SCCCN1C(=O)c2cccc3cccc(c23)C1=O [GRI977143],cell growth,significant from 24 hours onwards
same,cell proliferation,did not cause a significant increase in vector cell proliferation except at 72 hours
octadecenyl thiophosphate [OTP],cell growth,significant from 24 hours onwards
same,cell proliferation,significantly (p<0.001) increased
"CCCCCCCC/C=C\CCCCCCCC(=O)OC[C@@H](O)COP(=O)(O)O [LPA 18:1, Lysophosphatidic acid (18:1)]",cell growth,significant from 24 hours onwards
same,cell proliferation,no significant effect
